Assay results taken from article PMC6293271, “Bactericidal/Permeability-Increasing Protein Is an Enhancer of Bacterial Lipoprotein Recognition” (Frontiers in Immunology, 2018).
pKd: −log10 of the molar value. Ends that are not written are not given here. * marks the point of attachment. Palmitoyl = CCCCCCCCCCCCCCCC(=O)*

Key:
[1] = tested on: T1, rBPI; assay: BPI microtiter binding assay, LPS biotin-coated plates; set-up: species or system human; conditions: ligand pre-incubated with 20 nM rBPI
T1 construct: the human BPI (aa 32-487) and a C-terminal FLAG Tag; HA signal peptide (N); made in house; host or cells: HEK293T
Experimental: BPI binding assays were performed using a protocol published for LBP ([9]) with some modifications. Streptavidin-coated 96-well plates (Nunc^TM Immobilizer^TM Streptavidin F96 clear, Thermo Fisher Scientific, Waltham, MA, USA) were coated with LPS biotin (2 μg/ml) or Pam2CSK4 biotin (1 μg/ml) in PBS overnight at 23°C with gentle agitation. After washing with assay buffer (150 mM NaCl, 50 mM HEPES, Sigma Aldrich, Taufkirchen, Germany) containing 0.01% Casein, plates were blocked with 10 g/l BSA (Sigma Aldrich, Taufkirchen, Germany) at 37°C and washed again. Thereafter, ligands were preincubated with 20 nM BPI in assay buffer containing 1 g/l BSA for 30 min and loaded onto the plates. In case of bacterial lysates, 0.05% Tween 20 was added for preincubation. After incubation for 1 h at 37°C, three washing steps were performed. Bound BPI was detected by murine anti-human BPI monoclonal antibody (Cat.-No. HM2042, Hycult Biotech, Uden, Netherlands) and HRP-conjugated rabbit anti-mouse IgG (Cat.-No. 315-035-048, Dianova, Hamburg, Germany). TMB (BD OptEIA^TM TMB Substrate Reagent Set, BD Biosciences, Heidelberg, Germany) was used as a substrate for peroxidase. After addition of 1 N HCl, absorbance was measured at 450 nm. Technical replicates were performed at least two times using exactly the same reagents and are not indicated for the BPI microtiter binding assay. Biological replicates shown here are experiments independently performed by using separately formulated solutions of the reagents.

[2] = tested on: T1, rBPI; assay: NanoDSF thermal stability of rBPI with ligand; type: binding, human; conditions: 5 μM rBPI, 30 μM ligand, PBS pH 7.4
Experimental: For thermal unfolding experiments, rBPI protein was diluted to a final concentration of 5 μM in PBS pH 7.4, either containing a ligand at 30 μM concentration [(R)-Pam3CSK4, (R)-FSL-1 or LPS EC] or in the absence of a ligand. For each condition, 10 μl of sample per capillary were prepared. The samples were loaded into UV capillaries and experiments were carried out using the Prometheus NT.48 (NanoTemper Technologies, Munich, Germany). The temperature gradient was set to an increase of 1°C/min with a range from 20 to 90°C. Protein unfolding was measured by detecting the temperature-dependent change in tryptophan fluorescence at emission wavelength of 350 nm (Figure 3E, upper panel). Melting temperature (Tm) was determined by detecting the maximum of the first derivative of the fluorescence wavelength 350 nm. For this purpose, an 8th order polynomial fit was calculated for the transition region (Figure 3E, lower panel). Next, the first derivative of the fit was formed and the peak position (at Tm) was determined. Finally, Tm shift (Tm protein alone — Tm protein with ligand) upon addition of ligand to the protein (in°C) was calculated. Technical and biological replicates were defined as described for BPI microtiter binding assays.

[3] = target: T2, BPIN(A) (Homo sapiens, UniProt P17213); assay: MicroScale Thermophoresis (MST) binding assay with neutrophil BPI; conditions: 25°C
T2 construct: Bactericidal/permeability-increasing protein (BPI) extracted from neutrophils; purchased Athens Research and Technology; host or cells: neutrophils
T2 sequence (P17213 32-487): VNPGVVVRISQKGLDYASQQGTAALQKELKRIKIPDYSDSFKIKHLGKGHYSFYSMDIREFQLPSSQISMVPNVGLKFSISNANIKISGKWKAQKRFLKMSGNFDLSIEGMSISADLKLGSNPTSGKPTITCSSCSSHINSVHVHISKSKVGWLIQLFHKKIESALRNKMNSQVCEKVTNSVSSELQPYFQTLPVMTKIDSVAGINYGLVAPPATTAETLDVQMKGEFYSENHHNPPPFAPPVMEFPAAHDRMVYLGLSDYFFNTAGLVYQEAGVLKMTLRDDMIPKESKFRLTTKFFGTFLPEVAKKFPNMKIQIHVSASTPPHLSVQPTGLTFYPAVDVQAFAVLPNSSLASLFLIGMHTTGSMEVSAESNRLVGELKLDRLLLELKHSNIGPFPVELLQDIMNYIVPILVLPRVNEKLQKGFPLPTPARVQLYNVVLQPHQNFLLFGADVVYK
Experimental: BPIN(A) and rBPI were labeled with NT647 in PBS pH 7.4 (Monolith NT™ Protein Labeling Kit RED—NHS, NanoTemper Technologies, Munich, Germany). Concentration of labeled protein was determined using the NanoDrop (ThermoScientific, Wilmington, NC, USA) and Bradford assay (Promega, Mannheim, Germany). MicroScale Thermophoresis (MST) binding experiments were carried out with 5 nM labeled protein in binding buffer (10 mM HEPES pH 7.4, 150 mM NaCl, 0.1% Tween) with 0.05–1,679 nM of LPS EC or 0.196–6,436 nM of Pam3CSK4 or 0.61–20,000 nM of LTA SAΔlgt and LTA SPΔlgt or of >0.61–20,000 nM WTA SPΔlgt at 20–40% MST power, 20% LED power in premium capillaries on a Monolith NT.115 pico device at 25°C (NanoTemper Technologies, Munich, Germany). For MST binding assays based on Pam3CSK4 Fluorescein, 20 nM of the fluorescent molecule in binding buffer (10 mM HEPES pH 7.4, 150 mM NaCl, 0.1% Tween) was supplied with 0.018–600 nM BPIN(A) and measured at 40% MST power, 10% LED power in premium capillaries on a Monolith NT.115 pico device at 25°C (NanoTemper Technologies, Munich, Germany).
MST timetraces were recorded and the temperature jump or, respectively, thermophoresis was analyzed. The recorded fluorescence was plotted against the ligand concentration and curve fitting was performed with KaleidaGraph 4.5 using the dissocation constant (KD) fit formula derived from the law of mass action. […]

[4] = tested on: TLR2; set-up: method as in PMID 15193414; conditions: cited from earlier work

| Compound | inhibition of binding of rBPI to LPS biotin-coated wells [1] | TLR2-stimulatory potential [4] | other results |
| --- | --- | --- | --- |
| CCCCCCCCCCCCCCCC(=O)OCC(CO)OC(=O)CCCCCCCCCCCCCCC (stereo not shown) [DAG, Diacyl-glycerol 16:0] | no inhibitory binding |  |  |
| (R)-Pam2CSK4: di-acylated lipopeptide; acyl-chain deleted at the amino-terminal cysteine of the residual peptide (CSKKKK; di-acylated: diacyl-thioglycerol motif on the cysteine; no acyl-chain at the amino-terminal cysteine of the residual peptide) | lower inhibitory potential |  | change in melting temperature (Tm) of rBPI [2]: decrease in Tm |
| Pam3CSK4 Fluorescein: Pam3CSK4, covalently labeled with fluorescein (CSKKKK) |  |  | pKd ([3]; 20 nM Pam3CSK4 Fluorescein incubated with increasing concentrations of unlabeled BPIN(A)): 7.69 |
| Pam3CSK4: tri-acylated lipopeptide; racemate of (R)-Pam3CSK4 and (S)-Pam3CSK4 (Palmitoyl-CSKKKK; not fully specified (residue 1); also: racemate of (R) and (S) forms at the glycerol centre) | inhibited binding of rBPI to LPS in a dose-dependent manner |  | pKd ([3]; BPIN(A) NT647 (5 nM) incubated with increasing concentrations of ligand): 7.18 |
| Pam 2^* CSK4: di-acylated lipopeptide; acyl-chain deleted at the O-2-position of the thioglycerol core (CSKKKK; also: di-acylated lipopeptide, acyl chain deleted at O-2 of thioglycerol core) | lower inhibitory potential | lack TLR2-stimulatory potential |  |
| PamCSK4: mono-acylated lipopeptide; glycerol-core with two fatty acids deleted, peptide with only one fatty acid (Palmitoyl-CSKKKK) | not enough to completely block the inhibitory potential | lack TLR2-stimulatory potential |  |
